Data set [1] in a line: Cyclic voltammetry (CV) in dichloromethane. It counts as physicochemical. Conditions: n-BuN4PF6 0.1 M, silver/silver chloride reference electrode, 100 mV/sec. As for the experimental part:
(3) Measurement of CV (Cyclic Voltammetry)
CV was measured using dichloromethane as a solvent, tetrabutylammonium hexafluorophosphate (n-BuN4PF6, 0.1 M) as a supporting salt, platinum wires as a working electrode and a counter electrode, and a silver/sliver chloride electrode as a reference electrode, and sweeping the electric potential at a rate of 100 mV/sec.

The nature of data set [2]: Solubility to chloroform (saturated chloroform solutions). The data set is classed as physicochemical. The conditions noted are these: mass percent concentration of saturated chloroform solution. The protocol:
(1) Measurement of Solubility
Solubility was measured using chloroform as a solvent.

`CCCCCCCCc1cc2c(cc(CCCCCCCC)c3cc(=C(C#N)C#N)sc32)c2sc(=C(C#N)C#N)cc12` [Compound 110]: in data set [1], the “first half-wave reduction potential” value is 0.15 V and the “second half-wave reduction potential” value is −0.14 V.
Consider `CCCCCCCCCCCCCCCCc1cc2c(cc(CCCCCCCCCCCCCCCC)c3cc(=C(C#N)C#N)sc32)c2sc(=C(C#N)C#N)cc12` [Compound 114], for which, in data set [1], the “first half-wave reduction potential” value turned out to be 0.15 V and the “second half-wave reduction potential” value was −0.14 V.
On to `CCCCCCCCCCCCc1cc2c(cc(CCCCCCCCCCCC)c3cc(=C(C#N)C#N)sc32)c2sc(=C(C#N)C#N)cc12` [Compound 112], for which the “Solubility to Chloroform” value in data set [2] is on record as 0.20 w/w %. In addition, in data set [1], the “first half-wave reduction potential” value stood at 0.15 V and the “second half-wave reduction potential” value is −0.14 V.
Consider `CCCCC(CC)Cc1cc2c(cc(CC(CC)CCCC)c3cc(=C(C#N)C#N)sc32)c2sc(=C(C#N)C#N)cc12` (stereo not shown) [Compound 119], for which the “Solubility to Chloroform” value in data set [2] worked out at 0.53 w/w %. Further, in data set [1], the “first half-wave reduction potential” value is reported as 0.15 V and the “second half-wave reduction potential” value is given as −0.14 V.

For the origin of these results see patent US9859508B2, “Condensed polycyclic aromatic compound and use thereof” (Nippon Kayaku Kabushiki Kaisha, priority 2013, dated 2018).
